The conditions of series [1]: comparable conditions, 1 M salt solution, cited from earlier work.
In the next series the test system is B. subtilis 168. The series is described as follows: Selection for resistant strains, stepwise two-fold increased concentration. It is filed as cell-based, Bacillus subtilis. To be noted: 24 h cultures, two-fold increased concentration each transfer; rifampicin from 0.01 mg/L, DR5026 from 0.5 mg/L. On the procedure: A) B. subtilis. […] Then, the growth of the culture was evaluated by OD600nm and an aliquot of the culture was transferred to a new tube with fresh medium and a two-fold increased concentration of the active compound. This template was followed until no growth was detected for DR5026 or until B. subtilis grew at 5 mg/L of rifampicin.

For a further series, the system named is Bacillus subtilis. The series is described as follows: MIC, standard microdilution method. Background: Dilution methods test growth across graded concentrations, often in twofold steps.
Series [2] has as its system Mouse macrophages J774A.1. The series is described as follows: Membrane permeabilization assay (propidium iodide uptake). The format is cell-based. To be noted: LPPOs 10 mg/L, melittin 10 μM. On the procedure: Mouse macrophages J774A.1 (ATCC, number TIB-67) were cultured at 37°C in a humidified air/CO2 (19:1) atmosphere in RPMI medium supplemented with 10% (v/v) heat-inactivated fetal bovine serum, penicillin (100 IU/ml), streptomycin (100 mg/L), and amphotericin B (250 μg/L). For fluorescence measurements, cells were mechanically harvested, seeded on glass coverslips in 6-well plates, and grown to 30% confluence (about 2x10^5 cells). Cells grown on coverslips were washed in modified HBSS solution (140 mM NaCl, 5 mM KCl, 2 mM CaCl2, 3 mM MgCl2, 10 mM HEPES-Na, 50 mM glucose, pH 7.4) and promptly mounted into custom-made polypropylene holder which was placed horizontally into a quartz cuvette filled with HBSS containing 10 μM PI. The uptake of PI was observed as fluorescence increase using identical setting as with bacterial cells (see above). The observed area of the coverslip was about 10 mm^2, corresponding to approximately 10^4 cells.

Data on four molecules can be found in article PMC4696656, “Insights into the Mechanism of Action of Bactericidal Lipophosphonoxins” (PLoS ONE, 2015).

Converted amounts (≈) assume the structure as drawn. Where two headings read alike, the source gives them in different places.

With gramicidin A, in series [1], the channel conductance result was “ca. 20 pS”.
Consider alamethicin, for which the channel conductance entry in series [1] (no reference given) was “ca. 600 pS”.
The term MIC denotes the least concentration at which growth counts as inhibited. In the case of `CO[C@H]1/C=C/O[C@@]2(C)Oc3c(C)c(O)c4c(O)c(c(/C=N/N5CCN(C)CC5)c(O)c4c3C2=O)NC(=O)/C(C)=C\C=C\[C@H](C)[C@H](O)[C@@H](C)[C@@H](O)[C@@H](C)[C@H](OC(C)=O)[C@@H]1C` [rifampicin, reference compound], the development of resistance entry in the series on B. subtilis 168 was “able to obtain cells growing in the presence of 5 mg/L of rifampicin”. Moreover, the “MIC against wt B. subtilis” value against Bacillus subtilis (B. subtilis 168, as stated for the resistance selection experiment) came out at 0.06 µg/mL (≈ 0.0729 µM). Also, the MIC in the series with Bacillus subtilis (Bacillus subtilis, read-out: MIC against wt B. subtilis, B. subtilis 168, as stated for the resistance selection experiment) was around 0.06 µg/mL (≈ 0.0729 µM).
Turning to melittin, the “effect on cytoplasmic membrane permeability (PI uptake)” value in series [2] is “did so”.
